Experimental findings from article PMC8952293, “A Histone Deacetylase (HDAC) Inhibitor with Pleiotropic In Vitro Anti-Toxoplasma and Anti-Plasmodium Activities Controls Acute and Chronic Toxoplasma Infection in Mice” (International Journal of Molecular Sciences, 2022) are described below.

Where two headings read alike, the source gives them in different places.

One data set deals with Toxoplasma gondii. In words: In vitro anti-Toxoplasma proliferation in infected HFF monolayers (parasitic index, ScanR microscopy). It is filed as cell-based. The procedure: To investigate the effect of the JF363 on parasite proliferation, human HFFs were infected and treated with JF363 (concentrations ranging from 0 to 2 μM). After 24 h of culture, parasites were enumerated within the parasitophorous vacuole, and the IC50 was calculated for each parasite strain (Table 1).
To assess the drug activity on Toxoplasma gondii, confluent HFF monolayers were infected with parasites, 5 × 10^4 per well, then centrifuged for 30 s at 500× g and incubated for 30 min in a water bath at 37 °C to allow invasion. The wells were then washed three times with phosphate-buffered saline (PBS) to eliminate extracellular parasites, and drugs were added at various concentrations ranging from 1 to 2 μM in triplicate. After 24 h incubation at 37 °C in a humidified atmosphere containing 5% CO2, Hoechst 33342 (5 μg/mL) was added to host cells infected by parasites and further incubated for 20 min. After two washes, cells were fixed with 3.7% formaldehyde for 10 min at 37 °C.
In experiments using nonfluorescent parasites, Toxoplasma vacuoles were fixed for 15 min with 3.7% formaldehyde and stained with anti-GRA1 mAb diluted 1/500 in 2% bovine serum albumin (BSA) and 0.1% Triton X-100 in PBS, for 1 h at room temperature. After two washes, goat serum anti-mouse IgG (H + L)–Alexa-488 (1/500) was added for 20 min. Finally, Hoechst 33342 was added as described above.
The number of infected cells, i.e., cells harboring parasitophorous vacuoles, and the number of parasites per vacuole were determined using an Olympus ScanR microscope (×20 objective) and ScanR software. First, the parasitic index (PI) in % compared to the control was calculated as follows: PI = ((number of parasite/100 cells in treated wells) × (% of infected HFFs in treated well)/(number of parasite/100 cells in untreated wells) × (% of infected HFFs in untreated wells)) × 100. Then, the 50% inhibitory concentration (IC50) was calculated using Prism software (Prism 4 for Mac OS X, version 5.0b, San Diego, CA, USA).

For the next data set, the system named is Huh7 cells. Put plainly: Host cell viability (cell confluency, AlamarBlue) in the hepatic infection assay. It is filed as cell-based, human. The note with it: at the tested concentrations (up to 500 nM). The procedure:
Liver stage. The action of JF363 against the liver stage of P. berghei infection was assessed by bioluminescence, as previously described. Briefly, one day before infection, Huh7 cells were seeded in 96-well plates. JF363 stock solution was prepared in dimethyl sulfoxide (DMSO) and serially diluted in infection medium (culture medium supplemented with 50 µg/mL of gentamicin and 0.8 µg/mL of fungizone) to obtain the test concentrations (1, 10, 25, 50, […], 500 nM). These were added to the cells and incubated for 1 h at 37 °C and 5% CO2, after which 1 × 10^4 sporozoites were added to the wells. Plates were centrifuged at 1800× g for 5 min and incubated at 37 °C with 5% CO2 for the assay duration. At 46 h post-infection, the impact of the compound on cell viability was assessed by the AlamarBlue assay (Invitrogen, Carlsbad, CA, USA), following the manufacturer’s instructions. Following the manufacturer’s instructions, the drug’s effect on the parasite load was next evaluated using the Firefly Luciferase Assay Kit 2.0 (Biotium, Fremont, CA, USA). For IC50 determination, nonlinear regression analysis was employed to fit the normalized results of the dose–response curves, using GraphPad Prism 8 (Prism 4 for Mac OS X, version 5.0b, San Diego, CA, USA).

A further data set concerns P. falciparum NF54. Put plainly: In vitro P. falciparum erythrocytic infection (SYBR green I flow cytometry). The class given is cell-based. As to conditions: Plasmodium falciparum, PfNF54 blood stage, 48 h, three independent experiments. The procedure:
Blood stage. Ring-stage synchronized cultures of PfNF54 at 2.5% hematocrit and at approximately 1% parasitemia were incubated with drugs or DMSO (vehicle control) in 96-well plates, for 48 h, at 37 °C in a 5% CO2 and 5% O2 atmosphere. The stock solution of JF363 was prepared in DMSO. Working solutions (1, 10, 100, 200, 500, 1000, 2000 nM) were prepared from the stock solution in a complete malaria culture medium (CMCM), which consisted of RPMI 1640 supplemented with 25 mM HEPES, 2.4 mM L-glutamine, 50 μg/mL gentamicin, 0.5% w/v AlbuMAX (Gibco BRL), 11 mM glucose, 1.47 mM hypoxanthine, and 37.3 mM NaHCO3. Five microliters of the culture (approximately 800,000 cells) was stained with the DNA-specific dye SYBR green I for each measurement. Following 20 min incubation in the dark, the stained sample was analyzed by flow cytometry. For each flow cytometry measurement, approximately 100,000 events were analyzed. All samples were analyzed in triplicate, and three different experiments were performed and analyzed using GraphPad Prism 8 (Prism 4 for Mac OS X, version 5.0b, San Diego, CA, USA).

The conditions of data set [1]: mouse, in vivo.
Data set [2] relates to T. gondii type II Prugniaud strain. Put plainly: Chronic phase study: brain cyst burden in infected CBA mice. It is filed as in vivo, mouse. The procedure:
To assess the efficacy of compound JF363 on Toxoplasma cyst formation, infected CBA mice were treated for 15 days, two months post-infection. Then, 15 days later, mice were sacrificed, and brain cysts were counted.
Inbred CBA mice (Janvier Labs, Le Genest-Saint-Isle, France) were infected with 500 tachyzoites of Pru-DeltaKu80::HX strain. One month post-infection, effective infection was assessed by ELISA as described previously. Two months post-infection, mice were treated with 20 or 40 mg/kg of JF363 (corn oil/5% DMSO) for 15 days. Animals were sacrificed 15 days later, corresponding to 3 months post-infection, and brain cysts were counted. After removal and homogenization of mouse’s brain in 4 mL of PBS, suspensions were clarified by gentle incubation in proteinase K buffer (proteinase K 0.4 mg/mL, 10 mM Tris pH 8, ethylenediaminetetraacetic acid (EDTA) 1 mM, sodium dodecyl sulfate (SDS) 0.2%, sodium chloride 40 mM) for 15 min at 56 °C. The reaction was stopped by adding phenylmethylsulfonyl fluoride (PMSF) 2 mM and further incubation for 5 min at room temperature. The suspension was then washed with PBS and resuspended with fluorescein isothiocyanate (FITC)–Dolichos biflorus agglutinin (Vector Laboratories, CA, USA) […] for 30 min, at room temperature. At the end of the incubation, the suspension was washed with PBS and resuspended in a final volume of 1 mL of PBS distributed into six-well culture plates (1 brain per well). The number of cysts was counted by exanimation under an Axiovert 40 CFL inverted fluorescence microscope, Zeiss.

With `COc1cccc(CC(=O)Nc2ccc(C(=O)NO)cc2)c1` [JF363], the IC50 (as a rule, the point on the concentration scale where inhibition reaches its midpoint) in the data set on Toxoplasma gondii (24 h, read-out: IC50 range, strains other than haplogroup I and II, 24 h) is 170 to 430 nM; in the data set with Toxoplasma gondii (24 h, strain GUY008-ABE, haplogroup 5, clade F, 24 h, mean ± SD of 3 experiments), 300 ± 210 nM; in the data set on Toxoplasma gondii (24 h, strain GUY009-AKO, haplogroup 10, clade F, 24 h, mean ± SD of 3 experiments), 430 ± 120 nM; in the data set on Toxoplasma gondii (24 h, strain GUY021-TOJ, haplogroup 10, clade F, 24 h, mean ± SD of 3 experiments), 270 ± 30 nM; in the data set on Toxoplasma gondii (24 h, strain GUY-JAG1, haplogroup 11, no clade, 24 h, mean ± SD of 3 experiments), 170 ± 340 nM; with Toxoplasma gondii (24 h, strain MAS, haplogroup 4, clade B, 24 h, mean ± SD of 3 experiments), 210 ± 10 nM. In addition, the 50% inhibitory concentration (IC50) in the data set with Toxoplasma gondii (24 h, strain Prugniaud, haplogroup 2, clade D, 24 h, mean ± SD of 3 experiments) was 270 nM; with Toxoplasma gondii (24 h, strain RH-YFP, haplogroup 1, clade A, 24 h, mean ± SD of 3 experiments), 560 ± 50 nM; with Toxoplasma gondii (24 h, strain VEG, haplogroup 3, clade C, 24 h, mean ± SD of 3 experiments), 180 ± 70 nM; with Toxoplasma gondii (all tested T. gondii strains, depending on the haplogroup, read-out: IC50 range), 170 to 560 nM; in the data set on P. falciparum NF54, 230 ± 15 nM. Also, in the data set with Huh7 cells, the “toxicity towards the hepatic host cells (cell confluency)” value was “did not present toxicity”. Moreover, in data set [1], the “toxicity in healthy treated mice (survival, hair loss, erythema, organ failure)” value is recorded as “not toxic”. Also, the “diminution of cyst burden in the brain compared to untreated animals” value in data set [2] (40 mg/kg) is listed as 65%. Moreover, the “number of brain cysts, range” value in data set [2] (40 mg/kg oral for 15 days, two months post-infection, nontreated 76 to 312) was 21–85. In data set [2] (40 mg/kg oral for 15 days, two months post-infection, nontreated 168 ± 95, p < 0.05), the “number of brain cysts (mean ± SD)” value amounted to 57 ± 29.
